Read-outs that look alike come from different tables or passages of the source. Where a SMILES comes first, the peptide text is derived from it. [ ]: non-standard residue; d: D form. The star is where a group is joined. Decanoyl = CCCCCCCCCC(=O)*; Aib = CC(C)(N)C(=O)O
Assays:
Format in all cases: cell-based
human GIPR = target: T1, human GIPR (Homo sapiens, UniProt P48546); test: cAMP assay (HitHunter) in transiently transfected COS-7 cells expressing human GIPR; details: COS-7; normalized to highest concentration of the endogenous ligand; read-out: Efficacy GIPR (Emax)
T1 construct: host or cells: COS-7
T1 sequence (P48546 22-466): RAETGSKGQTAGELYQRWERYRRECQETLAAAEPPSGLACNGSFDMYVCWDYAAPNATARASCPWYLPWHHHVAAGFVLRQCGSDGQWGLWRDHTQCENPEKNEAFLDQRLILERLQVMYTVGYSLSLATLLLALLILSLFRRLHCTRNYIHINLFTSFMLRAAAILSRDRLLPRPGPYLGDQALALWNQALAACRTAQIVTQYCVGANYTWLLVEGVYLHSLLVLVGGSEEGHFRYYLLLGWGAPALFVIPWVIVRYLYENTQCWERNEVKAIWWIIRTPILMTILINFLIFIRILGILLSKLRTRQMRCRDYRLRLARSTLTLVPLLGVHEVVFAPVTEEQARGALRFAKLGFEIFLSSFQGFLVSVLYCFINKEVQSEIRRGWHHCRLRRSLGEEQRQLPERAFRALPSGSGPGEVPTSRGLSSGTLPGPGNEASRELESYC
Procedure: (§1) The next day the assay was initiated by washing with HEPES buffered saline (HBS) and followed by an incubation step with assay buffer (HBS added 1 mM isobutyl-1-methylxanthine (IBMX)) for 30 min at 37° C. The ligands were then added and incubated for an additional 30 min at 37° C. After ligand incubation, the HitHunter® CAMP assay (Eurofins DiscoverX, Fremont, […] USA) was carried out according to the manufacturer's instructions. […] The potencies (EC50 values) were determined by nonlinear regression using GraphPad Prism 9 (San Diego, California, USA). Sigmoid curves were fitted logistically. The efficacies (Emax values) were determined by normalization to the highest concentration applied of the endogenous ligand for each receptor.

human GLP-2R = target: T2, human GLP-2R (Homo sapiens, UniProt O95838); test: cAMP assay (HitHunter) in transiently transfected COS-7 cells expressing human GLP-2R; details: for Emax: COS-7, normalized to highest concentration of the endogenous ligand, read-out: Efficacy GLP-2R (Emax)
T2 construct: host or cells: COS-7
T2 sequence (O95838 1-553): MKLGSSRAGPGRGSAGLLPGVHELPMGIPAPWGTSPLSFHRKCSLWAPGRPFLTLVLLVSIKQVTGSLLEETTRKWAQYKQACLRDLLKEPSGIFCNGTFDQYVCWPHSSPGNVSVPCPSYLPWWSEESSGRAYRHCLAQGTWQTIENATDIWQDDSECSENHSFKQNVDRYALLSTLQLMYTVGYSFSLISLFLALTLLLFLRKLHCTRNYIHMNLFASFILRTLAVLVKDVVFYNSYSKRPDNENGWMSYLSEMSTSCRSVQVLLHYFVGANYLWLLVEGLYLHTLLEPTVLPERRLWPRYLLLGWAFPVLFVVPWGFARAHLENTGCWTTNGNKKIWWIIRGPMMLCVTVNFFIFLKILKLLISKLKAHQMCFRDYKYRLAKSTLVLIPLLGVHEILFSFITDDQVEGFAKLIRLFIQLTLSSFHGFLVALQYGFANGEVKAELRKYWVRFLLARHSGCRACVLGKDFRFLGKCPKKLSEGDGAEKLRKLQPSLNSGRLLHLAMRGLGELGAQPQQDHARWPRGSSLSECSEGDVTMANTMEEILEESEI
Procedure: as §1

human GLP-1R = target: T3, human GLP-1R (Homo sapiens, UniProt P43220); test: cAMP assay (HitHunter) in transiently transfected COS-7 cells expressing human GLP-1R; details: for Emax: COS-7, normalized to highest concentration of the endogenous ligand, read-out: Efficacy GLP-1R (Emax)
T3 construct: host or cells: COS-7
Procedure: as §1

[1] = cAMP, COS-7 cells, human GLP-2R, read-out: EC50 (nM) GLP-2R

T3 sequence (P43220 24-463): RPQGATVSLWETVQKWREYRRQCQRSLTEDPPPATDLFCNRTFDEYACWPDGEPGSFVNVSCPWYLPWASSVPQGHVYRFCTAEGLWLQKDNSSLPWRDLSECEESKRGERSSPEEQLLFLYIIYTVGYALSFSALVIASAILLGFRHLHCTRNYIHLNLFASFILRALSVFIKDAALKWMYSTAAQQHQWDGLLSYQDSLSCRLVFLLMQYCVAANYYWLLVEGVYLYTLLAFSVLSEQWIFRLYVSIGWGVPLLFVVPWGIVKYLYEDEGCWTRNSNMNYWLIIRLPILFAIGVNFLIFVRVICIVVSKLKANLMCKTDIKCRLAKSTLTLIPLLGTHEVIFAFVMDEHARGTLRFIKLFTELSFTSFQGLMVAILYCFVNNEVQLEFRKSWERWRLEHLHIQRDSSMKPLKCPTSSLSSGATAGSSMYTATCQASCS

Emax (human GIPR) [%]	Emax (human GLP-2R) [%]	EC50 (human GLP-2R; [1]) [nM]	Emax (human GLP-1R) [%]	EC50 (human GLP-1R; cAMP, COS-7 cells, human GLP-1R, read-out: EC50 (nM) GLP-1R) [nM]	SMILES	EC50 (human GLP-2R) [nM]	EC50 (human GLP-1R) [nM]
104	108	11.2	105	–	CCCCCCCCCC(=O)NCCCC[C@H](NC(=O)[C@@H](NC(=O)[C@@H](NC(=O)[C@H](CCCCN)NC(=O)[C@@H](NC(=O)[C@H](CCC(N)=O)NC(=O)[C@@H](NC(=O)[C@H](CC(C)C)NC(=O)[C@H](Cc1c[nH]c2ccccc12)NC(=O)[C@H](CCC(=O)O)NC(=O)[C@@H](NC(=O)[C@H](Cc1ccccc1)NC(=O)[C@H](CC(=O)O)NC(=O)[C@H](CCCNC(=N)N)NC(=O)[C@H](C)NC(=O)[C@H](C)NC(=O)[C@H](CC(C)C)NC(=O)[C@H](CC(N)=O)NC(=O)[C@H](CC(=O)O)NC(=O)[C@H](CC(C)C)NC(=O)[C@@H](NC(=O)[C@@H](NC(=O)[C@H](CO)NC(=O)[C@H](Cc1ccc(O)cc1)NC(=O)[C@H](CC(=O)O)NC(=O)[C@H](CO)NC(=O)[C@@H](NC(=O)[C@H](Cc1ccccc1)NC(=O)[C@@H](NC(=O)CNC(=O)[C@H](CC(=O)O)NC(=O)C(C)(C)NC(=O)[C@@H](N)Cc1c[nH]cn1)[C@@H](C)O)[C@@H](C)CC)[C@@H](C)O)[C@@H](C)CC)[C@@H](C)CC)[C@@H](C)CC)[C@@H](C)O)[C@@H](C)CC)[C@@H](C)O)C(N)=O [Compound 9]	–	–
97	99	–	96	–	CCCCCCCCCC(=O)NCCCC[C@H](NC(=O)[C@@H](NC(=O)[C@@H](NC(=O)[C@H](CCCCN)NC(=O)[C@@H](NC(=O)[C@H](CCC(N)=O)NC(=O)[C@@H](NC(=O)[C@H](CC(C)C)NC(=O)[C@H](Cc1c[nH]c2ccccc12)NC(=O)[C@H](CC(N)=O)NC(=O)[C@@H](NC(=O)[C@H](Cc1ccccc1)NC(=O)[C@H](CC(=O)O)NC(=O)[C@H](CCCNC(=N)N)NC(=O)[C@H](C)NC(=O)[C@H](C)NC(=O)[C@H](CC(C)C)NC(=O)[C@H](CC(N)=O)NC(=O)[C@H](CC(=O)O)NC(=O)[C@H](CC(C)C)NC(=O)[C@@H](NC(=O)[C@@H](NC(=O)[C@H](CO)NC(=O)[C@H](Cc1ccc(O)cc1)NC(=O)[C@H](CC(=O)O)NC(=O)[C@H](CO)NC(=O)[C@@H](NC(=O)[C@H](Cc1ccccc1)NC(=O)[C@@H](NC(=O)CNC(=O)[C@H](CC(=O)O)NC(=O)C(C)(C)NC(=O)[C@@H](N)Cc1c[nH]cn1)[C@@H](C)O)[C@@H](C)CC)[C@@H](C)O)[C@@H](C)CC)[C@@H](C)CC)[C@@H](C)CC)[C@@H](C)O)[C@@H](C)CC)[C@@H](C)O)C(N)=O (single isomer, unassigned) [Compound 6]	–	–
97	92	–	107	–	CCCCCCCCCC(=O)N[C@@H](CCC(=O)NCCCC[C@H](NC(=O)[C@@H](NC(=O)[C@@H](NC(=O)[C@H](CCCCN)NC(=O)[C@@H](NC(=O)[C@H](CCC(N)=O)NC(=O)[C@@H](NC(=O)[C@H](CC(C)C)NC(=O)[C@H](Cc1c[nH]c2ccccc12)NC(=O)[C@H](CC(N)=O)NC(=O)[C@@H](NC(=O)[C@H](Cc1ccccc1)NC(=O)[C@H](CC(=O)O)NC(=O)[C@H](CCCNC(=N)N)NC(=O)[C@H](C)NC(=O)[C@H](C)NC(=O)[C@H](CC(C)C)NC(=O)[C@H](CC(N)=O)NC(=O)[C@H](CC(=O)O)NC(=O)[C@H](CC(C)C)NC(=O)[C@@H](NC(=O)[C@@H](NC(=O)[C@H](CO)NC(=O)[C@H](Cc1ccc(O)cc1)NC(=O)[C@H](CC(=O)O)NC(=O)[C@H](CO)NC(=O)[C@@H](NC(=O)[C@H](Cc1ccccc1)NC(=O)[C@@H](NC(=O)CNC(=O)[C@H](CC(=O)O)NC(=O)C(C)(C)NC(=O)[C@@H](N)Cc1c[nH]cn1)[C@@H](C)O)[C@@H](C)CC)[C@@H](C)O)[C@@H](C)CC)[C@@H](C)CC)[C@@H](C)CC)[C@@H](C)O)[C@@H](C)CC)[C@@H](C)O)C(N)=O)C(=O)O [Compound 17]	–	–
117	86	25.1	85	25.1	CCCCCCCCCC(=O)NCCCC[C@H](NC(=O)[C@@H](NC(=O)[C@@H](NC(=O)[C@H](CCCCN)NC(=O)[C@@H](NC(=O)[C@H](CCC(N)=O)NC(=O)[C@@H](NC(=O)[C@H](CC(C)C)NC(=O)[C@H](Cc1c[nH]c2ccccc12)NC(=O)[C@H](CC(N)=O)NC(=O)[C@@H](NC(=O)[C@H](Cc1ccccc1)NC(=O)[C@H](CC(=O)O)NC(=O)[C@H](CCCNC(=N)N)NC(=O)[C@H](C)NC(=O)[C@H](C)NC(=O)[C@H](CC(C)C)NC(=O)[C@H](CC(N)=O)NC(=O)[C@H](CC(=O)O)NC(=O)[C@H](CC(C)C)NC(=O)[C@H](CCC(=O)O)NC(=O)[C@@H](NC(=O)[C@H](CO)NC(=O)[C@H](Cc1ccc(O)cc1)NC(=O)[C@H](CC(=O)O)NC(=O)[C@H](CO)NC(=O)[C@@H](NC(=O)[C@H](Cc1ccccc1)NC(=O)[C@@H](NC(=O)CNC(=O)[C@H](CC(=O)O)NC(=O)C(C)(C)NC(=O)[C@@H](N)Cc1c[nH]cn1)[C@@H](C)O)[C@@H](C)CC)[C@@H](C)O)[C@@H](C)CC)[C@@H](C)CC)[C@@H](C)O)[C@@H](C)CC)[C@@H](C)O)C(N)=O [Compound 13] (H-H[Aib]DGTFISDYSTELDNLAARDFINWLIQTKITK(Decanoyl)-NH2)	–	–

SMILES	Emax (human GIPR) [%]	Emax (human GLP-2R) [%]	EC50 (human GLP-2R; [1]) [nM]	Emax (human GLP-1R) [%]	EC50 (human GLP-1R; cAMP, COS-7 cells, human GLP-1R, read-out: EC50 (nM) GLP-1R) [nM]	EC50 (human GLP-2R) [nM]	EC50 (human GLP-1R) [nM]
CCCCCCCCCC(=O)NCCCC[C@H](NC(=O)[C@@H](NC(=O)[C@@H](NC(=O)[C@H](CCCCN)NC(=O)[C@@H](NC(=O)[C@H](CCC(N)=O)NC(=O)[C@@H](NC(=O)[C@H](CC(C)C)NC(=O)[C@H](Cc1c[nH]c2ccccc12)NC(=O)[C@H](CC(N)=O)NC(=O)[C@@H](NC(=O)[C@H](Cc1ccccc1)NC(=O)[C@H](CC(=O)O)NC(=O)[C@H](CCCNC(=N)N)NC(=O)[C@H](C)NC(=O)[C@H](C)NC(=O)[C@H](CC(C)C)NC(=O)[C@H](CC(N)=O)NC(=O)[C@H](CC(=O)O)NC(=O)[C@H](CC(C)C)NC(=O)[C@@H](NC(=O)[C@@H](NC(=O)[C@H](CO)NC(=O)[C@H](Cc1ccc(O)cc1)NC(=O)[C@H](CC(=O)O)NC(=O)[C@H](CO)NC(=O)[C@@H](NC(=O)[C@H](Cc1ccccc1)NC(=O)[C@@H](NC(=O)CNC(=O)[C@H](CC(=O)O)NC(=O)C(C)(C)NC(=O)[C@@H](N)Cc1c[nH]cn1)[C@@H](C)O)[C@@H](C)CC)[C@@H](C)CC)[C@@H](C)CC)[C@@H](C)CC)[C@@H](C)CC)[C@@H](C)O)[C@@H](C)CC)[C@@H](C)O)C(N)=O [Compound 10] (H-H[Aib]DGTFISDYSIILDNLAARDFINWLIQTKITK(Decanoyl)-NH2)	127	103	–	99	–	11.2	3.98
CCCCCCCCCC(=O)NCCCC[C@H](NC(=O)[C@@H](NC(=O)[C@@H](NC(=O)[C@H](CCCCN)NC(=O)[C@@H](NC(=O)[C@H](CCC(N)=O)NC(=O)[C@@H](NC(=O)[C@H](CC(C)C)NC(=O)[C@H](Cc1c[nH]c2ccccc12)NC(=O)[C@H](CC(N)=O)NC(=O)[C@@H](NC(=O)[C@H](Cc1ccccc1)NC(=O)[C@H](CC(=O)O)NC(=O)[C@H](CCCNC(=N)N)NC(=O)[C@H](C)NC(=O)[C@H](C)NC(=O)[C@H](CC(C)C)NC(=O)[C@H](CC(N)=O)NC(=O)[C@H](CC(=O)O)NC(=O)[C@H](CC(C)C)NC(=O)[C@@H](NC(=O)[C@@H](NC(=O)[C@H](CO)NC(=O)[C@H](Cc1ccc(O)cc1)NC(=O)[C@H](CC(=O)O)NC(=O)[C@H](CO)NC(=O)[C@@H](NC(=O)[C@H](Cc1ccccc1)NC(=O)[C@@H](NC(=O)CNC(=O)[C@H](CCC(=O)O)NC(=O)C(C)(C)NC(=O)[C@@H](N)Cc1c[nH]cn1)[C@@H](C)O)[C@@H](C)CC)[C@@H](C)O)[C@@H](C)CC)[C@@H](C)CC)[C@@H](C)CC)[C@@H](C)O)[C@@H](C)CC)[C@@H](C)O)C(N)=O [Compound 11] (H-H[Aib]EGTFISDYSTILDNLAARDFINWLIQTKITK(Decanoyl)-NH2)	89	68	25.1	76	–	–	–

From US20250304644A1, “PEPTIDES TRIPLE AGONISTS OF GIP, GLP-1 AND GLP-2” (BAINAN BIOTECH APS, priority 2021, published 2025)
